This is an account of results in US20260000676A1, “CHROMAN DERIVATIVES AS ESTROGEN RECEPTOR DEGRADERS” (THE REGENTS OF THE UNIVERSITY OF MICHIGAN, priority 2022, published 2026).

Structures can show the parent of a compound that is named as a salt. A value given as a limit tells only on which side of the number the result lay.

For one assay, the target named is ERα_LBD(GST) (Homo sapiens (Human), UniProt P03372). Briefly: LanthaScreen TR-FRET ERα competitive binding assay. The settings on record: read-out: ERα HTRF IC50. The method in brief:
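GST-tagged ERα LBD (4 nM) with Tb anti-GST (2 nM) and Fluormone ES2 Green tracer (3 nM) in nuclear receptor buffer K plus 5 mM DTT, 1% DMSO; 3-fold compound dilutions, 60 min at room temperature in the dark. TR-FRET 520/495 nm ratio vs log[ligand], sigmoidal fit for IC50; 1 μM ARV_471 as full-inhibition control.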
In general terms: In TR-FRET formats the signal depends on donor and acceptor labels being close together.

The test system of another assay is T47D cells. Nature of the assay: cells. The settings on record: Homo sapiens, 144 h, read-out: T47D Proliferation IC50 (nM).
Assay [1] addresses T1, ER (Homo sapiens (Human), UniProt P03372). Briefly: In-cell western (ICW) ER degradation assay in MCF-7 cells. The class given is cell-based. The settings on record: MCF7, 16 hrs; for DC50: ER degradation; for Dmax: MCF7, maximal ER degradation.
The target of assay [2] is T1, ER. Nature of the assay: In-cell western (ICW) ER degradation assay in T47D cells. The class given is cell-based. Conditions: 16 hrs; for DC50: ER degradation; for Dmax: maximal ER degradation.
The test system of another assay is MCF-7 cells. Briefly: cells. The settings on record: Homo sapiens, MCF7, 144 h, read-out: MCF7 Proliferation IC50 (nM).
A further assay has as its target CRBN/DDB1 (Homo sapiens (Human), UniProt Q96SW2). Nature of the assay: HTRF binding assay to CRBN/DDB1. The settings on record: read-out: CRBN HTRF IC50. On the procedure: The binding potency was determined using HTRF assay technology (Perkin Elmer). Compounds were serially diluted in DMSO and 0.2 μL volume was transferred to white 384-well plate.

CRBN/DDB1, sequence (Q96SW2 whole entry): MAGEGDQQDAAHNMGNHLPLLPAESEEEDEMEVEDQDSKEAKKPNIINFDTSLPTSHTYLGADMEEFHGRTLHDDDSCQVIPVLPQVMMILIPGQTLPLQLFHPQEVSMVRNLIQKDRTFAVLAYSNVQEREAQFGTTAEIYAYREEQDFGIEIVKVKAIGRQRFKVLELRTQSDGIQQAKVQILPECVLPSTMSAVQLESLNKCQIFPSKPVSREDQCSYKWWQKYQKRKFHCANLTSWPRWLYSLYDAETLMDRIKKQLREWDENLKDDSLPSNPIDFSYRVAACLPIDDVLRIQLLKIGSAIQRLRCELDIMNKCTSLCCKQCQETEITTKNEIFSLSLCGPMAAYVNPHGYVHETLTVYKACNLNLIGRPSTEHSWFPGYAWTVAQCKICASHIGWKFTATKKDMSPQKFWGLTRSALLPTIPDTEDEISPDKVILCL
CRBN/DDB1, sequence (Q16531 whole entry partner): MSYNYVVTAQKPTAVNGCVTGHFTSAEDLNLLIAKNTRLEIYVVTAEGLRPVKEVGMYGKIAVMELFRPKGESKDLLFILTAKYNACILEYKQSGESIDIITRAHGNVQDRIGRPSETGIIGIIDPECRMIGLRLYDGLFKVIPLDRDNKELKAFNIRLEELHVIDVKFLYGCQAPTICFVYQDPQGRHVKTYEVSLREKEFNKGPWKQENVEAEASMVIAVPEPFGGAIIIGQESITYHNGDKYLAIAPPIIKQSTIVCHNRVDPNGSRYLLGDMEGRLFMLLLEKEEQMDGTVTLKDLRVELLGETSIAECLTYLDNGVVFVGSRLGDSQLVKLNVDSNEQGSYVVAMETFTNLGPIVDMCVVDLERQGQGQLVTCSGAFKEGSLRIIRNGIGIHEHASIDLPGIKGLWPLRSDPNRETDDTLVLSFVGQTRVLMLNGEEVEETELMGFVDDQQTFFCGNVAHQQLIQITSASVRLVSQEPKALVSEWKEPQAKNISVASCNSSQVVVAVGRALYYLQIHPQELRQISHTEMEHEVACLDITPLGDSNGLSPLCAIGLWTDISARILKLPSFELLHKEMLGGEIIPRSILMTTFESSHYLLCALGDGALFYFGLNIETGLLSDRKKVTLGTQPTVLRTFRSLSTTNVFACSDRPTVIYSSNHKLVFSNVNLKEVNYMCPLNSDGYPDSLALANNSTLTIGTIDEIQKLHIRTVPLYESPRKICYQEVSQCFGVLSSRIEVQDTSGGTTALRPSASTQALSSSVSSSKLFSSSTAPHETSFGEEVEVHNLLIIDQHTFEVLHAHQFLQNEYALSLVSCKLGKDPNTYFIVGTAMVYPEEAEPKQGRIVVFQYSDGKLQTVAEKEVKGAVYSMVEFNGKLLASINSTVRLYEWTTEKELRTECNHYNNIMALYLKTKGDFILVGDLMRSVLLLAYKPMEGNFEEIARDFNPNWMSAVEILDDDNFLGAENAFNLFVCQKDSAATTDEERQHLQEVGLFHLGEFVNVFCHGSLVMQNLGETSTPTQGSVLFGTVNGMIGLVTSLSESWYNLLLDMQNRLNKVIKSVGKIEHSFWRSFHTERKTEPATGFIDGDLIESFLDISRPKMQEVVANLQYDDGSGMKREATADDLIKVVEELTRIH
ERα_LBD(GST), sequence (P03372 311-547): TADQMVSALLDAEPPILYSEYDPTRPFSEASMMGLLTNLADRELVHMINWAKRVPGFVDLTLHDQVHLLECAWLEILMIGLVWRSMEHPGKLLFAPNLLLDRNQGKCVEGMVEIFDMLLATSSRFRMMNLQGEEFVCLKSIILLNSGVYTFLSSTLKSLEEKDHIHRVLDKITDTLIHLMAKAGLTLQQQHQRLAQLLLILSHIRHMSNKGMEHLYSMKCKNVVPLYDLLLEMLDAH
T1 sequence (P03372 whole entry): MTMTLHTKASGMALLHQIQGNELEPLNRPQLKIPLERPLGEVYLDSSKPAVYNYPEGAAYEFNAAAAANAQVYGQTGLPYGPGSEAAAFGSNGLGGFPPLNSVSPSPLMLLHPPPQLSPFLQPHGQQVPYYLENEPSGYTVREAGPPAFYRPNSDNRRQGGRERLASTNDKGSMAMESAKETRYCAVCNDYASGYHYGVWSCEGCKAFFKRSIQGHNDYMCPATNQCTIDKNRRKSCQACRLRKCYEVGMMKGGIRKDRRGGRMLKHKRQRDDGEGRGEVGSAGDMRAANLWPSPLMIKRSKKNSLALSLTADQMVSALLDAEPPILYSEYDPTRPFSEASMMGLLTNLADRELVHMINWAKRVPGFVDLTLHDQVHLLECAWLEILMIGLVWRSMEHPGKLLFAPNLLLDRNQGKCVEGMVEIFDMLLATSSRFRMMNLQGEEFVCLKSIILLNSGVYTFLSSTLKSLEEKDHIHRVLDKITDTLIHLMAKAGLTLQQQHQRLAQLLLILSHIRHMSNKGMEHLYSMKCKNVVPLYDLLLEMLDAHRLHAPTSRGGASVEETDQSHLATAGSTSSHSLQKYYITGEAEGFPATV

`O=C1CCC(N2Cc3cc(N4CCN(CC5CCN(c6ccc([C@@H]7c8ccc(O)cc8OC[C@@H]7c7ccccc7)cc6)CC5)CC4)ccc3C2=O)C(=O)N1` (single isomer, unassigned) [Compound A62]: the IC50 was < 5 nM at ERα_LBD(GST), < 50 nM in the assay with T47D cells, < 50 nM in the assay with MCF-7 cells and 50 to 500 nM at CRBN/DDB1. Also, the DC50 on ER [1] and at ER [2] was < 1 nM in each case. Besides, the Dmax at ER [1] and at ER [2] was 50 to 75% in each case.

In the case of `O=C1CC[C@@H](N2Cc3cc4c(cc3C2=O)OC[C@H]2CN(CC3CCC5(CC3)CN(c3ccc([C@@H]6c7ccc(O)cc7OC[C@@H]6c6ccccc6)cc3)C5)CCN42)C(=O)N1` [Compound A119, (R)-3-((R)-3-((2-(4-((3S,4R)-7-hydroxy-3-phenylchroman-4-yl)phenyl)-2-azaspiro[3.5]nonan-7-yl)methyl)-8-oxo-1,2,3,4,4a,5,8,10-octahydro-9H-pyrazino[1′,2′:4,5][1,4]oxazino[2,3-f]isoindol-9-yl)piperidine-2,6-dione], the IC50 lay within 500 to 5000 nM with T47D cells, 50 to 500 nM in the assay on MCF-7 cells and 500 to 5000 nM on CRBN/DDB1. For the same compound, the 50% degradation concentration (DC50) on ER [1] and at ER [2] was 1 to 10 nM each time. For the same compound, the Dmax on ER [1] and on ER [2] was 50 to 75% in each case.

`O=C1CC[C@H](N2Cc3c(ccc4c3OC[C@H]3CN(CC5CC6(CCN(c7ccc([C@H]8c9ccc(O)cc9OC[C@H]8c8ccccc8)cc7)CC6)C5)CCN43)C2=O)C(=O)N1` (single isomer, unassigned) [Compound A50]: the IC50 at ERα_LBD(GST) is < 5 nM; in the assay on T47D cells, 50 to 500 nM; in the assay with MCF-7 cells it was 50 to 500 nM; on CRBN/DDB1, 50 to 500 nM. Also, the DC50 (commonly the concentration at which degradation of the target reaches its halfway point) at ER [1] is 1 to 10 nM; on ER [2], < 1 nM. The Dmax at ER [1] and at ER [2] was 50 to 75% throughout.

Regarding `O=C1CC[C@@H](N2Cc3cc4c(cc3C2=O)OC[C@H]2CN(CC3CCC5(CC3)CN(c3ccc([C@H]6c7ccc(O)cc7OC[C@H]6c6ccccc6)cc3)C5)CCN42)C(=O)N1` (single isomer, unassigned) [Compound A118], the figures for the IC50 on ERα_LBD(GST), in the assay on T47D cells and with MCF-7 cells were < 5 nM, 50 to 500 nM and 50 to 500 nM, respectively. In addition, the DC50 at ER [1] and on ER [2] was 1 to 10 nM each time. Further, the Dmax on ER [1] and on ER [2] was ≥ 75% each time.

As to `O=C1CC[C@@H](N2Cc3c(ccc4c3OCC43CCN(CC4CCC5(CC4)CN(c4ccc([C@H]6c7ccc(O)cc7OC[C@H]6c6ccccc6)cc4)C5)CC3)C2=O)C(=O)N1` [Compound A154, (R)-3-(1′-((2-(4-((3R,4S)-7-hydroxy-3-phenylchroman-4-yl)phenyl)-2-azaspiro[3.5]nonan-7-yl)methyl)-6-oxo-6,8-dihydro-2H,7H-spiro[furo[2,3-e]isoindole-3,4′-piperidin]-7-yl)piperidine-2,6-dione], the IC50 on ERα_LBD(GST) was < 5 nM; in the assay on T47D cells it was < 50 nM; in the assay with MCF-7 cells, < 50 nM; at CRBN/DDB1, < 50 nM. The DC50 on ER [1] and at ER [2] was < 1 nM throughout. For the same compound, the figures for the Dmax at ER [1] and on ER [2] were 50 to 75% and ≥ 75%, respectively.

Turning to `O=C1CC[C@H](N2Cc3c(ccc4c3OC[C@H]3CN(CC5CCC6(CC5)CN(c5ccc([C@@H]7c8ccc(O)cc8OC[C@@H]7c7ccccc7)cc5)C6)CCN43)C2=O)C(=O)N1` (single isomer, unassigned) [Compound A115], the IC50 at ERα_LBD(GST) was < 5 nM; in the assay with T47D cells, 50 to 500 nM; in the assay with MCF-7 cells it was 50 to 500 nM; at CRBN/DDB1, 50 to 500 nM. The DC50 at ER [1] and at ER [2] was < 1 nM each time. Besides, the Dmax at ER [1] and at ER [2] was ≥ 75% in each case.

Consider `O=C1CCC(N2Cc3cc4c(cc3C2=O)CN(C(=O)CN2CC3(CCN(c5ccc([C@H]6c7ccc(O)cc7OC[C@H]6c6ccccc6)cc5)CC3)C2)C4)C(=O)N1` (stereo partly drawn) [Compound A56, 3-(6-(2-(7-(4-((3R,4S)-7-hydroxy-3-phenylchroman-4-yl)phenyl)-2,7-diazaspiro[3.5]nonan-2-yl)acetyl)-1-oxo-3,5,6,7-tetrahydropyrrolo[3,4-f]isoindol-2(1H)-yl)piperidine-2,6-dione formate], for which the figures for the IC50 in the assay on T47D cells, in the assay on MCF-7 cells and on CRBN/DDB1 were < 50 nM, < 50 nM and 50 to 500 nM, respectively. Moreover, the DC50 was 1 to 10 nM on ER [1] (formate) and < 1 nM at ER [2]. At ER [1] (maximal ER degradation, formate), the “MCF7 Dmax %” value was “B (“B”: >50% and <75%)”. The Dmax (as a rule, the greatest extent of degradation seen) on ER [2] was ≥ 75%.

As to `O=C1CC[C@@H](N2Cc3cc4c(cc3C2=O)OC[C@H]2CN(CC3COC5(CCN(c6ccc([C@H]7c8ccc(O)cc8OC[C@H]7c7ccccc7)cc6)CC5)C3)CCN42)C(=O)N1` (stereo partly drawn) [Compound A138, (3R)-3-((4aR)-3-((8-(4-((3R,4S)-7-hydroxy-3-phenylchroman-4-yl)phenyl)-1-oxa-8-azaspiro[4.5]decan-3-yl)methyl)-8-oxo-1,2,3,4,4a,5,8,10-octahydro-9H-pyrazino[1′,2′:4,5][1,4]oxazino[2,3-f]isoindol-9-yl)piperidine-2,6-dione], the IC50 at ERα_LBD(GST) is < 5 nM; with T47D cells, < 50 nM; in the assay with MCF-7 cells it was < 50 nM; at CRBN/DDB1, 50 to 500 nM. The DC50 at ER [1] and at ER [2] was < 1 nM in each case. Also, the Dmax was ≥ 75% on ER [1] and 50 to 75% on ER [2].

For `COc1cc(N2CCC(CN3CCC(c4ccc(N[C@@H]5CCC(=O)NC5=O)cc4)CC3)CC2)ccc1[C@@H]1c2ccc(O)cc2OC[C@@H]1c1ccccc1` [Compound A150, (R)-3-((4-(1-((1-(4-((3S,4R)-7-hydroxy-3-phenylchroman-4-yl)-3-methoxyphenyl)piperidin-4-yl)methyl)piperidin-4-yl)phenyl)amino)piperidine-2,6-dione], the IC50 is < 5 nM at ERα_LBD(GST), 50 to 500 nM in the assay on T47D cells and 50 to 500 nM in the assay on MCF-7 cells. The DC50 on ER [1] and at ER [2] was < 1 nM throughout. In addition, the Dmax on ER [1] and on ER [2] was 25 to 50% in each case.

In the case of `O=C1CC[C@@H](N2Cc3cc4c(cc3C2=O)OC[C@H]2CN(CC3CC5(CCN(c6ccc([C@@H]7c8ccc(O)cc8OC[C@@H]7c7ccccc7)cc6)CC5)C3)CCN42)C(=O)N1` [Compound A95, (R)-3-((R)-3-((7-(4-((3S,4R)-7-hydroxy-3-phenylchroman-4-yl)phenyl)-7-azaspiro[3.5]nonan-2-yl)methyl)-8-oxo-1,2,3,4,4a,5,8,10-octahydro-9H-pyrazino[1′,2′:4,5][1,4]oxazino[2,3-f]isoindol-9-yl)piperidine-2,6-dione], the IC50 with T47D cells is < 50 nM; with MCF-7 cells it was 50 to 500 nM; on CRBN/DDB1, 500 to 5000 nM. The DC50 on ER [1] and on ER [2] was 1 to 10 nM throughout. Besides, the maximal degradation (Dmax) on ER [1] and at ER [2] was 50 to 75% in each case.

With `O=C1CC[C@@H](N2Cc3cc4c(cc3C2=O)OCC2CN(CC3CCC5(CC3)CN(c3ccc([C@H]6c7ccc(O)cc7OC[C@H]6c6ccccc6)cc3)C5)CCN42)C(=O)N1` (stereo in doubt) [Compound A120, (R)-3-((R)-3-((2-(4-((3R,4S)-7-hydroxy-3-phenylchroman-4-yl)phenyl)-2-azaspiro[3.5]nonan-7-yl)methyl)-8-oxo-1,2,3,4,4a, 5,8,10-octahydro-9H-pyrazino[1′,2′:4,5][1,4]oxazino[2,3-f]isoindol-9-yl)piperidine-2,6-dione], the IC50 at ERα_LBD(GST) is < 5 nM; with T47D cells, 50 to 500 nM; in the assay with MCF-7 cells, 50 to 500 nM. Besides, the DC50 on ER [1] is 1 to 10 nM; at ER [2], < 1 nM. The Dmax on ER [1] and at ER [2] was ≥ 75% throughout.

Take `O=C1CC[C@@H](N2Cc3cc4c(cc3C2=O)OC[C@@H]2CN(CC3CC5(CCN(c6ccc([C@H]7c8ccc(O)cc8OC[C@H]7c7ccccc7)cc6)CC5)C3)CCN42)C(=O)N1` [Compound A96, (R)-3-((S)-3-((7-(4-((3R,4S)-7-hydroxy-3-phenylchroman-4-yl)phenyl)-7-azaspiro[3.5]nonan-2-yl)methyl)-8-oxo-1,2,3,4,4a,5,8,10-octahydro-9H-pyrazino[1′,2′:4,5][1,4]oxazino[2,3-f]isoindol-9-yl)piperidine-2,6-dione]: the IC50 with T47D cells is < 50 nM; in the assay on MCF-7 cells, < 50 nM; at CRBN/DDB1, 50 to 500 nM. Moreover, the DC50 at ER [1] and at ER [2] was < 1 nM throughout. The Dmax at ER [1] and at ER [2] was 50 to 75% each time.

Take `O=C1CCC(N2Cc3c(ccc4c3OCC43CCN(CC4CC5(CCN(c6ccc([C@@H]7c8ccc(O)cc8OC[C@@H]7c7ccccc7)cc6)CC5)C4)CC3)C2=O)C(=O)N1` (stereo partly drawn) [Compound A113, 3-(1′-((7-(4-((3S,4R)-7-hydroxy-3-phenylchroman-4-yl)phenyl)-7-azaspiro[3.5]nonan-2-yl)methyl)-6-oxo-6,8-dihydro-2H,7H-spiro[furo[2,3-e]isoindole-3,4′-piperidin]-7-yl)piperidine-2,6-dione]: the IC50 in the assay with T47D cells was > 5000 nM; in the assay on MCF-7 cells, < 50 nM; on CRBN/DDB1, < 50 nM. Also, the DC50 on ER [1] and on ER [2] was < 1 nM throughout. Also, the Dmax at ER [1] and on ER [2] was 50 to 75% each time.
